The values that follow come from patent US10501479B2, “Benzenesulfonyl-asymmetric ureas and medical uses thereof” (HELSINN HEALTHCARE SA, priority 2016, dated 2019).

Structures are written as SMILES. Where a name gives a salt, the structure may show the parent alone. Read-outs that look alike come from different tables or passages of the source.

Assay [1] concerns the target T1, recombinant human ghrelin receptor (HEK293/GRLN) (Homo sapiens, UniProt Q92847).
T1 construct: expressed in transfected cells
Put plainly: Ghrelin inverse agonist potency (EC50) with IP-1 (IP-One HTRF) assay. It counts as cell-based. The note with it: IP-1 assay. As for the experimental part: Evaluation of Ghrelin Inverse Agonist Potency (EC50) with IP-1 Assay:
HEK293 cells stably expressing recombinant human ghrelin receptor (HEK293/GRLN) were used in the IP-One HTRF assay. One day before the test, cells were seeded at a density of 1.5×10^4/well in a Matrigel® coated 384-well plate with 30 μL of complete Dulbecco's Modified Eagle's Medium and incubated at 37° C. in 5% CO2 for 18-22 hours. On the test day, the medium was removed by centrifugation at 600 rpm for 30 seconds, and 20 μL of stimulation buffer containing 1x tested compound was added with Bravo (Agilent technologies). The plate was then incubated at 37° C. 5% CO2 for 1 hour. After the incubation, 5 μL of IP1-d2 and 5 μL of Tb-Cryp were added to all wells using multidrop Combi(Thermo). After additional incubation at room temperature for 1 hour, the plates were read on Envision with 620 and 665 (Perkin Elmer).
On the technique in general: In TR-FRET formats the signal depends on donor and acceptor labels being close together.

Assay [2] addresses T2, GHSR-1a (HEK293/GHSR1a cell line) (Homo sapiens, UniProt Q92847).
T2 construct: expressed in transfected cells; host or cells: HEK293/GHSR1a cell line
Put plainly: Ghrelin antagonist potency (IC50) with calcium FLIPR assay, ghrelin 10 nM. It counts as cell-based. The note with it: ghrelin antagonist potency. The procedure, abridged:
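The cells were plated a day ahead and loaded with a calcium-sensitive dye. Test compound was then added and incubated 15 min, followed by ghrelin. Antagonist potency was calculated from inhibition of the response to 10 nM ghrelin, and agonist potency from the calcium rise caused by compound alone.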

[3] abbreviates: inverse agonist potency, read-out: EC50 (Activity).

T1 sequence (Q92847 whole entry): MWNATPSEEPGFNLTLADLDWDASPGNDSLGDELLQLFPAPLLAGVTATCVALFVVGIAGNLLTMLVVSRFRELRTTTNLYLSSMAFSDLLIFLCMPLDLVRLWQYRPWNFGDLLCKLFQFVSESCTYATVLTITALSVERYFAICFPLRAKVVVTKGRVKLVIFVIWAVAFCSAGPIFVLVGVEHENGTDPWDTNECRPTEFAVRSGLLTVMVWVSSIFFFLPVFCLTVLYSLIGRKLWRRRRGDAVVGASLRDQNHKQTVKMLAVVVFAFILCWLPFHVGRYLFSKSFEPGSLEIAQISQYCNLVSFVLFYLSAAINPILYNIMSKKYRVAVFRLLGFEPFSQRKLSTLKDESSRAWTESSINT
T2 sequence (Q92847 whole entry): as above

Broadly, the EC50 is the concentration at which the effect is half-maximal. By IC50 is commonly meant the concentration at which inhibition is half-maximal. With `O=C(NCc1cccc(Cl)c1Cl)Nc1ccc(S(=O)(=O)Cc2ccc3c(c2)CCNC3)cc1` [H1040, 1-(2,3-dichlorobenzyl)-3-(4-(((1,2,3,4-tetrahydroisoquinolin-6-yl)methyl)sulfonyl)phenyl)urea], the concentration for a half-maximal effect (EC50) in assay [1] (setting [3]) amounted to 164 nM. Also, in assay [2] (read-out: IC50 (Activity)), the 50% inhibitory concentration (IC50) came to 31.8 nM.

As for `COc1ccc([C@H](C)NC(=O)Nc2ccc(S(=O)(=O)Nc3ccc(CCN)cc3)cc2)c(Cl)c1Cl` [H0951, (S)-N-(4-(2-aminoethyl)phenyl)-4-(3-(1-(2,3-dichloro-4-methoxyphenyl)ethyl)ureido) benzenesulfonamide], in assay [1] (setting [3]), the EC50 stood at 32.7 nM. In addition, the IC50 in assay [2] (read-out: IC50 (Activity)) is 83.8 nM.

For `CC(NC(=O)Nc1ccc(S(=O)(=O)Cc2ccc(CO)cc2)cc1)c1cccc2ccccc12` (stereo not shown) [H1132, 1-(4-((4-(hydroxymethyl)benzyl)sulfonyl)phenyl)-3-(1-(naphthalen-1-yl)ethyl)urea], the concentration for a half-maximal effect (EC50) in assay [1] (setting [3]) is 219 nM. Further, in assay [2] (read-out: IC50 (Activity)), the IC50 was determined as 574 nM.

Consider `CC(NC(=O)Nc1ccc(S(=O)(=O)Cc2ccc3c(c2)CN(C)C3)cc1)C1CC1` (stereo not shown) [H1244, 1-(1-cyclopropylethyl)-3-(4-(((2-methylisoindolin-5-yl)methyl)sulfonyl)phenyl)urea], for which the EC50 in assay [1] (setting [3]) turned out to be 356 nM. In addition, in assay [2] (read-out: IC50 (Activity)), the half-maximal inhibitory concentration (IC50) is 1280 nM.

As to `O=C(NCc1ccsc1)Nc1ccc(S(=O)(=O)Cc2ccc3c(c2)CNC3)cc1` [H1217, 1-(4-((isoindolin-5-ylmethyl)sulfonyl)phenyl)-3-(thiophen-3-ylmethyl)urea], in assay [1] (setting [3]), the EC50 worked out at 1150 nM. Moreover, the IC50 in assay [2] (read-out: IC50 (Activity)) came out at 1450 nM.

As to `C[C@H](NC(=O)Nc1ccc(S(=O)(=O)Cc2ccc3c(c2)CCN(Cc2ccccc2)C3)cc1)c1cccc(Cl)c1Cl` [H1072, (S)-1-(4-(((2-benzyl-1,2,3,4-tetrahydroisoquinolin-6-yl)methyl)sulfonyl)phenyl)-3-(1-(2,3-dichlorophenyl)ethyl)urea], the EC50 in assay [1] (setting [3]) was 21.9 nM. In addition, in assay [2] (read-out: IC50 (Activity)), the 50% inhibitory concentration (IC50) came out at 123 nM.

Take `CC(c1ccccc1)N(C)C(=O)Nc1ccc(S(=O)(=O)Cc2ccc3c(c2)CNC3)cc1` (stereo not shown) [H1206, 3-(4-((isoindolin-5-ylmethyl)sulfonyl)phenyl)-1-methyl-1-(1-phenylethyl)urea]: in assay [1] (setting [3]), the concentration giving a half-maximal response (EC50) was found to be 252 nM. The IC50 in assay [2] (read-out: IC50 (Activity)) was 262 nM.

Turning to `O=C(NCc1cccc(Cl)c1)Nc1ccc(S(=O)(=O)Cc2ccc3c(c2)CCNC3)cc1` [H1038, 1-(3-chlorobenzyl)-3-(4-(((1,2,3,4-tetrahydroisoquinolin-6-yl)methyl)sulfonyl)phenyl)urea], the 50% effective concentration (EC50) in assay [1] (setting [3]) was 123 nM. Further, the half-maximal inhibitory concentration (IC50) in assay [2] (read-out: IC50 (Activity)) turned out to be 376 nM.

`C[C@H](NC(=O)Nc1ccc(S(=O)(=O)Cc2cccc(CO)c2)cc1)c1cccc(Cl)c1Cl` [H1088, (S)-1-(1-(2,3-dichlorophenyl)ethyl)-3-(4-((3-(hydroxymethyl)benzyl)sulfonyl)phenyl)urea]: the EC50 in assay [1] (setting [3]) came to 367 nM. Moreover, the IC50 in assay [2] (read-out: IC50 (Activity)) is 7970 nM.

Turning to `C[C@H](NC(=O)Nc1ccc(S(=O)(=O)Nc2ccc(CN)cc2)cc1)c1cccc(Cl)c1Cl` [H1050, (S)-N-(4-(aminomethyl)phenyl)-4-(3-(1-(2,3-dichlorophenyl)ethyl)ureido) benzenesulfonamide], the half-maximal effective concentration (EC50) in assay [1] (setting [3]) was 109 nM. Also, the IC50 in assay [2] (read-out: IC50 (Activity)) was 57.4 nM.

Turning to `C[C@H](NC(=O)Nc1ccc(S(=O)(=O)Nc2ccc(CC(C)(C)N)cc2)cc1)c1ccc(C#CC2CC2)c(Cl)c1Cl` [H0907, (S)-N-(4-(2-amino-2-methylpropyl)phenyl)-4-(3-(1-(2,3-dichloro-4-(cyclopropylethynyl)phenyl)ethyl)ureido)benzenesulfonamide], the half-maximal effective concentration (EC50) in assay [1] (setting [3]) amounted to 1610 nM. The IC50 in assay [2] (read-out: IC50 (Activity)) is 23.5 nM.

In the case of `CC(NC(=O)Nc1ccc(S(=O)(=O)Nc2ccc(CO)cc2)cc1)c1cccc2ccccc12` (stereo not shown) [H1133, N-(4-(hydroxymethyl)phenyl)-4-(3-(1-(naphthalen-1-yl)ethyl)ureido) benzenesulfonamide], the EC50 in assay [1] (setting [3]) came out at 170 nM. Besides, the IC50 in assay [2] (read-out: IC50 (Activity)) was 419 nM.

With `CC(c1ccccc1)N(O)C(=O)Nc1ccc(S(=O)(=O)Cc2ccc3c(c2)CN(C)C3)cc1` (stereo not shown) [H1527, 1-hydroxy-3-(4-(((2-methylisoindolin-5-yl)methyl)sulfonyl)phenyl)-1-(1-phenylethyl)urea], the half-maximal effective concentration (EC50) in assay [1] (ghrelin inverse agonist potency, read-out: Activity EC50) is 34 nM. Besides, the IC50 in assay [2] (read-out: Activity IC50) stood at 130 nM.

`C[C@H](NC(=O)Nc1ccc(S(=O)(=O)Cc2ccc(O)cc2)cc1)c1cccc(Cl)c1Cl` [H1099, (S)-1-(1-(2,3-dichlorophenyl)ethyl)-3-(4-((4-hydroxybenzyl)sulfonyl)phenyl)urea]: the EC50 in assay [1] (setting [3]) is 1140 nM. In addition, in assay [2] (read-out: IC50 (Activity)), the IC50 came to 8670 nM.

Turning to `CN(Cc1ccccc1)C(=O)Nc1ccc(S(=O)(=O)Cc2ccc3c(c2)CNC3)cc1` [H1204, 1-benzyl-3-(4-((isoindolin-5-ylmethyl)sulfonyl)phenyl)-1-methylurea], the EC50 in assay [1] (setting [3]) is 624 nM. Also, in assay [2] (read-out: IC50 (Activity)), the IC50 was 692 nM.

With `CC(C)CNC(=O)Nc1ccc(S(=O)(=O)Cc2ccc3c(c2)CN(C)C3)cc1` [H1236, 1-isobutyl-3-(4-(((2-methylisoindolin-5-yl)methyl)sulfonyl)phenyl)urea], the concentration giving a half-maximal response (EC50) in assay [1] (setting [3]) stood at 507 nM. The IC50 in assay [2] (read-out: IC50 (Activity)) is 1640 nM.

For `C[C@H](NC(=O)Nc1ccc(S(=O)(=O)Nc2ccc(C(C)(C)N)cc2)cc1)c1cccc(Cl)c1Cl` [H1074, (S)-N-(4-(2-aminopropan-2-yl)phenyl)-4-(3-(1-(2,3-dichlorophenyl)ethyl)ureido) benzenesulfonamide], the 50% effective concentration (EC50) in assay [1] (setting [3]) was determined as 657 nM. Further, the half-maximal inhibitory concentration (IC50) in assay [2] (read-out: IC50 (Activity)) was 3250 nM.

Take `CC(NC(=O)Nc1ccc(S(=O)(=O)Cc2ccc3c(c2)CCNC3)cc1)c1cccc(Cl)c1` (stereo not shown) [H1042, 1-(1-(3-chlorophenyl)ethyl)-3-(4-(((1,2,3,4-tetrahydroisoquinolin-6-yl)methyl)sulfonyl)phenyl)urea]: the concentration giving a half-maximal response (EC50) in assay [1] (setting [3]) was 122 nM. For the same compound, in assay [2] (read-out: IC50 (Activity)), the IC50 stood at 36.6 nM.

Consider `COc1ccc(CNC(=O)Nc2ccc(S(=O)(=O)Cc3ccc4c(c3)CNC4)cc2)cc1` [H1203, 1-(4-((isoindolin-5-ylmethyl)sulfonyl)phenyl)-3-(4-methoxybenzyl)urea], for which the EC50 in assay [1] (setting [3]) worked out at 161 nM. Further, the concentration for half-maximal inhibition (IC50) in assay [2] (read-out: IC50 (Activity)) is 447 nM.

As to `CCN1Cc2ccc(C(C)(C)S(=O)(=O)c3ccc(NC(=O)NC(C)c4ccccc4)cc3)cc2C1` (stereo not shown) [H1232, 1-(4-((2-(2-ethylisoindolin-5-yl)propan-2-yl)sulfonyl)phenyl)-3-(1-phenylethyl)urea], the EC50 in assay [1] (setting [3]) was 310 nM. Further, the concentration for half-maximal inhibition (IC50) in assay [2] (read-out: IC50 (Activity)) was > 30000 nM.

Regarding `COc1ccc(CNC(=O)Nc2ccc(S(=O)(=O)Cc3ccc4c(c3)CNC4)cc2)nc1` [H1212, 1-(4-((isoindolin-5-ylmethyl)sulfonyl)phenyl)-3-((5-methoxypyridin-2-yl)methyl)urea], the EC50 in assay [1] (setting [3]) amounted to 1780 nM. Besides, the IC50 in assay [2] (read-out: IC50 (Activity)) worked out at 3100 nM.

`COc1ccc([C@H](C)NC(=O)Nc2ccc(S(=O)(=O)Nc3ccc4c(c3)CCN(C(C)=O)C4)cc2)c(Cl)c1Cl` [H1034, (S)-N-(2-acetyl-1,2,3,4-tetrahydroisoquinolin-6-yl)-4-(3-(1-(2,3-dichloro-4-methoxyphenyl)ethyl)ureido) benzenesulfonamide]: the EC50 in assay [1] (setting [3]) was found to be 1610 nM. Besides, the IC50 in assay [2] (read-out: IC50 (Activity)) was determined as 1260 nM.

As for `C[C@H](NC(=O)Nc1ccc(S(=O)(=O)Nc2ccc(N)nn2)cc1)c1cccc(Cl)c1Cl` [H1129, (S)-N-(6-aminopyridazin-3-yl)-4-(3-(1-(2,3-dichlorophenyl)ethyl)ureido) benzenesulfonamide], in assay [1] (setting [3]), the EC50 came to 2460 nM. Moreover, the concentration for half-maximal inhibition (IC50) in assay [2] (read-out: IC50 (Activity)) is 3330 nM.

As for `C[C@H](NC(=O)Nc1ccc(S(=O)(=O)Nc2ccc3[nH]ccc3c2)cc1)c1cccc(Cl)c1Cl` [H0991, (S)-4-(3-(1-(2,3-dichlorophenyl)ethyl)ureido)-N-(1H-indol-5-yl)benzenesulfonamide], the EC50 in assay [1] (setting [3]) worked out at 66.8 nM. For the same compound, the half-maximal inhibitory concentration (IC50) in assay [2] (read-out: IC50 (Activity)) was determined as 146 nM.

For the compound `C[C@H](NC(=O)Nc1ccc(S(=O)(=O)Nc2ccc3c(c2)CCNC3)cc1)c1ccc(-c2cnccn2)c(Cl)c1Cl` [H1006, (S)-4-(3-(1-(2,3-dichloro-4-(pyrazin-2-yl)phenyl)ethyl)ureido)-N-(1,2,3,4-tetrahydroisoquinolin-6-yl)benzenesulfonamide], the EC50 in assay [1] (setting [3]) was determined as 36.9 nM. Moreover, the concentration for half-maximal inhibition (IC50) in assay [2] (read-out: IC50 (Activity)) came out at 72 nM.

As for `CC(c1ccc2c(c1)CCNC2)S(=O)(=O)c1ccc(NC(=O)N[C@@H](C)c2cccc(Cl)c2Cl)cc1` (stereo partly drawn) [H1103, 1-((S)-1-(2,3-dichlorophenyl)ethyl)-3-(4-((1-(1,2,3,4-tetrahydroisoquinolin-6-yl)ethyl)sulfonyl)phenyl)urea hydrochloride], the EC50 in assay [1] (setting [3]) was found to be 66 nM. The IC50 in assay [2] (read-out: IC50 (Activity)) came to 487 nM.
